One data set has as its target T1, hA1AR (Homo sapiens, UniProt P30542).
T1 construct: host or cells: CHO cells
T1 sequence (P30542 1-326): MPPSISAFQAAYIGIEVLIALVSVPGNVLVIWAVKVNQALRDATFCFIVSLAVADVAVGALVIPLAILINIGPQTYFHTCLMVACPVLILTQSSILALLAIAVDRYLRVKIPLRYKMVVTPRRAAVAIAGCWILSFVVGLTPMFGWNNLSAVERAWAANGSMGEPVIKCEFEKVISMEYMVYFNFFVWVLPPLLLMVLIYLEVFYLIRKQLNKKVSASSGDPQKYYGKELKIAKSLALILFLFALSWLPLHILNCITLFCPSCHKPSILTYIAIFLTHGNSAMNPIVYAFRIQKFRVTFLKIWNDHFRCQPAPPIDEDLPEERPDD
Put plainly: Modulation of Forskolin-stimulated cAMP levels in hA1 CHO cells. The class given is cell-based. The following applies: for EC50: footnote c, mean ± SEM of four experiments, read-out: hA1AR EC50 or IC50, potency to modulate Forskolin-stimulated cAMP levels; for hA1AR Efficacy: normalized: CCPA full agonist = 100%, DPCPX inverse agonist = −100%; for hA1AR Profile: pharmacological profile in cAMP assay. The method, then:
(§1) The amino-3,5-dicyanopyridines 1–21 were tested for their affinity at hA1, hA2A and hA3 ARs, stably transfected in Chinese Hamster Ovary (CHO) cells. Moreover, they were also studied as hA2B agonists by evaluating their stimulatory effect on cAMP production in CHO cells, stably expressing the hA2B AR. […] Due to their interesting pan profile, both compounds 1 and 5 were evaluated as AR agonists also at the hA2A and hA3 subtypes.
(§2) CHO cells transfected with hA1, hA2A, hA2B and hA3 ARs (Perkin Elmer, Boston, MA, USA) were grown adherently and maintained in Dulbecco’s modified Eagle’s medium with nutrient mixture F12, containing 10% fetal calf serum, penicillin (100 U/mL), streptomycin (100 μg/mL), L-glutamine (2 mM) and geneticine (G418; 0.2 mg/mL), at 37 °C, in 5% CO2/95% air, until their use in cAMP assays. For membrane preparation, the culture medium was removed, and the cells were washed with phosphate-buffered saline and scraped off T75 flasks in ice-cold hypotonic buffer (5 mM Tris HCl, 1 mM EDTA, pH 7.4). The cell suspension was homogenized with a Polytron, centrifuged for 30 min at 40,000× g, at 4 °C, and the resulting membrane pellet was used for competition binding experiments.
(§3) CHO cells transfected with hAR subtypes were washed with phosphate-buffered saline, detached with tripsine and centrifuged for 10 min at 200× g. Cells were seeded in a 96-well white half-area microplate (Perkin Elmer, Boston, USA) in a stimulation buffer composed of Hank Balanced Salt Solution, 5 mM HEPES, 0.5 mM Ro 20–1724, 0.1% BSA. The cAMP levels were then quantified by using the AlphaScreen cAMP Detection Kit (Perkin Elmer, Boston, MA, USA), following the manufacturer’s instructions. At the end of the experiments, the plates were read with a Perkin Elmer EnSight Multimode Plate Reader.

The next data set addresses T2, hA2AAR (Homo sapiens, UniProt P29274).
T2 construct: host or cells: CHO cells
Put plainly: cAMP assay in hA2A CHO cells. It counts as cell-based. The settings on record: for EC50: cAMP assay, hA2A CHO cells; for hA2AAR Efficacy: normalized: CGS21680 full agonist = 100%. The method, then: as §1, §2, §3
In general terms: Cyclic AMP is a second messenger, typically raised through Gs and lowered through Gi signalling.

Another data set deals with T3, hA3AR (Homo sapiens, UniProt P0DMS8).
T3 construct: host or cells: CHO cells
T3 sequence (P0DMS8 1-318): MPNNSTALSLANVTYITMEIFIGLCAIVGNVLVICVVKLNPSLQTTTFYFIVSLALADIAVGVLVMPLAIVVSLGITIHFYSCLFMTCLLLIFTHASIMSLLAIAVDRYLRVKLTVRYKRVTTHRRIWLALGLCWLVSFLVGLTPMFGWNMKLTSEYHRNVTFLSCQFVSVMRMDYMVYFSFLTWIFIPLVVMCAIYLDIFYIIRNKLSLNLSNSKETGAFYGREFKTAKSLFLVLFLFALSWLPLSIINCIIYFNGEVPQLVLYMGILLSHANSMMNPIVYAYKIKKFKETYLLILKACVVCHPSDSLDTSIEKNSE
Put plainly: Modulation of Forskolin-stimulated cAMP levels in hA3 CHO cells. It counts as cell-based. The following applies: for IC50: cAMP assay, hA3 CHO cells, read-out: hA3AR IC50, potency to modulate Forskolin-stimulated cAMP levels; for hA3AR Efficacy: normalized: 2-Cl-IB-MECA full agonist = 100%. The method, then: as §1, §2, §3

Data set [1] can be described thus: Solubility in testing medium. The settings on record: PBS + Tween 80 (2% w/w), pH 7.4, aqueous with cosolvent or surfactant or cyclodextrin. The class given is physicochemical.

T2 sequence (P29274 whole entry): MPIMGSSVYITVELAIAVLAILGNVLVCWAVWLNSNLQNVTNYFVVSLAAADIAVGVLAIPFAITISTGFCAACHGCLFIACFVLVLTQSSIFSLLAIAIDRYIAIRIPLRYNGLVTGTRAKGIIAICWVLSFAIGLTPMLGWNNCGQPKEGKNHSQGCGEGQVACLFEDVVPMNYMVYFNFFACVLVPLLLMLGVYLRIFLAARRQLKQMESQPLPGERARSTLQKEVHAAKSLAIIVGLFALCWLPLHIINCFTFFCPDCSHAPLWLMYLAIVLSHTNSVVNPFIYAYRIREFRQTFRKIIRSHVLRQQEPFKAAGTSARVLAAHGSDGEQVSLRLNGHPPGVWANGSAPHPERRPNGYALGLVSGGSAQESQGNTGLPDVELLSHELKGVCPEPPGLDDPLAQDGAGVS

As usually defined, the EC50 is the concentration needed to bring the measured effect to its halfway point. The term IC50 denotes the concentration that inhibits the measured activity by half. As usually defined, the solubility is the concentration that dissolves in the medium under given conditions. Usually melting point stands for the temperature, or range, at which the solid turns liquid. Regarding `N#Cc1c(N)nc(SCc2ncc[nH]2)c(C#N)c1-c1cccs1` [Compound 5, 2-Amino-6-[(1H-imidazol-2-ylmethyl)sulfanyl]-4-(thiophen-2-yl)pyridine-3,5-dicarbonitrile], the melting point fell in the range of 246 to 248 °C. On hA1AR, the EC50 stood at 1.95 ± 0.16 nM, the “hA1AR Efficacy” value is on record as 75 ± 5% and the “hA1AR Profile” value was “Partial Agonist”. For the same molecule, at hA2AAR, the EC50 stood at 11.3 ± 1 nM and the “hA2AAR Efficacy” value stood at 40 ± 3%. Further, on hA3AR, the IC50 was determined as 33 ± 2 nM and the “hA3AR Efficacy” value was 34 ± 3%. Also, the solubility in data set [1] came out at 27.3 ± 2.52 µg/mL.

As for `N#Cc1c(N)nc(SCc2ncc[nH]2)c(C#N)c1-c1ccco1` [Compound 1, 2-Amino-4-(furan-2-yl)-6-[(1H-imidazol-2-ylmethyl)sulfanyl]pyridine-3,5-dicarbonitrile], on hA1AR, the EC50 is 12.2 ± 1.2 nM, the “hA1AR Efficacy” value stood at 31 ± 3% and the “hA1AR Profile” value was “Partial Agonist”. Besides, at hA2AAR, the response was half-maximal at 15.1 ± 1.3 nM (EC50) and the “hA2AAR Efficacy” value is recorded as 39 ± 3%. Also, on hA3AR, the IC50 was 68 ± 6 nM and the “hA3AR Efficacy” value amounted to 45 ± 4%. The solubility in data set [1] came out at 40.6 ± 0.16 µg/mL.

The values are drawn from article PMC9024521, “4-Heteroaryl Substituted Amino-3,5-Dicyanopyridines as New Adenosine Receptor Ligands: Novel Insights on Structure-Activity Relationships and Perspectives” (Pharmaceuticals, 2022).
